From patent US11702442B2, “Cyclic dinucleotide compounds as sting agonists” (The Regents of the University of California, priority 2019, dated 2023)

Assays:
rocR = molecular target: T1, rocR (Pseudomonas aeruginosa, UniProt Q9HX69); test: rocR-mediated CDN hydrolysis monitored by HPLC; format: biochemical, P. aeruginosa
T1 construct: made in house; host or cells: Escherichia coli BL21(DE3)
Text: [1a,27] rocR is a PDE that contains an EAL domain and specifically recognizes and cleaves c-di-GMP into the linear dinucleotide pGpG. […] [28a,29]
RocR is reported to follow Michaelis-Menten kinetics. [27c,28a] Scheme 2a was therefore used to analyze the reaction kinetics, where k1 and k−1 describe the enzyme/substrate association and dissociation, respectively, while k2 reflects the cleavage reaction. Equations (10)-(13) were thus used to extract the rate constants. When “asymmetrical” mixed c-di-GMP analogues are treated with rocR, the enzyme may, in principle, recognize and cleave either phosphodiester bonds, producing pN1pN2 and pN2pN1. Assuming the two products result from different binding orientation of the heterodimeric CDNs, Scheme 2b is therefore introduced to model the cleavage reactions, where k1, k−1 and k2 reflect the association/dissociation and cleavage of the heterodimeric CDN in one orientation, respectively, and k3, k−3 and k4 reflect the other. Equations (14)-(19) were used to extract the rate constants.
Equations(10)-(19) d[S]/dt=−k1[E][S]+k−1[ES] (10) d[E]/dt=−k1[E][S]+k−1[ES]+k2[ES] (11) d[P]/dt=k2[ES] (12) d[ES]/dt=k1[E][S]−k−1[ES]−k2[ES] (13) d[S]/dt=−k1[E][S]+k−1[ES1]−k3[E][S]+k−3[ES2] (14) d[P1]/dt=k2[ES1] (15) d[P2]/dt=k4[ES2] (16) d[E]/dt=−(k1+k3)[E][S]+(k−1+k2)[ES1]+[…][ES2]] (17) d[ES1]/dt=k1[E][S]−k−1[ES1]−k2[ES1] (18) d[ES2]/dt=k3[E][S]−k−3[ES2]−k4[ES2] (19)
CDN hydrolysis with rocR. […] of CDN was incubated with 100 nM of rocR in a buffer containing 100 mM Tris-HCI, pH 8, 20 mM KCI, 25 mM MgCl2 at 37° C. Aliquots of the reaction mixture were taken out at designated time points and quenched with 100 mM CaCl2. All aliquots were filtered before subjected to reverse-phase HPLC analysis. The reaction mixture was separated by Sepax Bio C-18 column (250×10 mm, 5 µm particle size) with a gradient of 0.1-15% of 10 mM NH4OAc, pH7 in Me0H in 12 minutes at 25° C. or 50° C. (only for reactions of c-GtzGMP and c-di-tzGMP) on an Agilent 1200 series HPLC system (Agilent Technologies).
Data Analysis and curve fitting. […] The relative concentrations were plotted against time.

STING pathway [1] = test: IFN-β mRNA production in RAW 264.7 cells by RT-qPCR; format: cell-based, murine
Description: FIGS. 3A-3C provide IFN data. […] RAW 264.7 cells were transfected with 1, 5, 10 μM of c-di-GMP, c-di-^tzGMP, c-G^thGMP, c-di-G^thGMP and c-G^tzGMP, and incubated for 2, 4, 6 h before being lysed by TRIzol. RNA purification and RT-qPCR were conducted following the protocol described in the Experimental Section. FIG. 3B show IFN response after 2, 4, 6 h of incubation with 5 μM of CDNs. […] Two independent assays were performed in triplicates (n=2). Error bars indicate SD. See Yi et al, Tuning the Innante Immune Response to Cyclic Dinucleotides by Using Atomic Mutagenesis, ChemBioChem, Volume 21 (2020).
As most synthetic c-di-GMP analogues activated IRF3, the inventors analyzed their dose and time dependency for inducing IFN-β mRNA production by using RT-qPCR. RAW 264.7 cells were transfected with 1, 5 and 10 μM of CDNs as described above and incubated for 2, 4 and 6 h. Total RNA was isolated and used for RT-qPCR. As shown in FIGS. 3A-3B, c-di-GMP induced the most IFN-β mRNA production 4 h post transfection, whereas the highest response was observed after 2 h for c-di-tzGMP, c-GthGMP, and c-GtzGMP.
RT-qPCR. RAW 264.7 cells were plated on 48-well plates (2.5×10^5 cells per well) and transfected with CDN using the same method as above after 48 h of incubation at 37° C. Cells were then incubate with regular growth medium for designated time, and total RNA was isolated with TRIzol® reagent and purified with RNeasy mini kit (Qiagen) following the manufacturer's protocol. Following elution, RNA yields were evaluated using a Nanodrop spectrophotometer (Nanodrop technologies). RNA samples were converted to cDNA with SuperScript III First-Strand Synthesis kit (Invitrogen) with random hexamers following the manufacturer's protocol. Quantitative PCR (SYBR Green) analysis was performed in duplicates on an Applied Biosystems 7300 Real-time PCR system (Invitrogen). Transcription level of IFN-β gene of each sample was normalized to housekeeping gene TBP and then to untreated samples (UT) using the delta-delta CT method.

STING pathway [2] = test: IRF3 phosphorylation in RAW 264.7 cells (immunoblot pIRF3 vs β-actin); format: cell-based, murine; settings: RAW 264.7, 1, 5 and 10 μM CDN, 2 h after transfection
Description: FIGS. 2A-2B show IRF3 phosphorylation induced by c-di-GMP and its analogues. […] 1, 5 and 10 μM of each CDN was used to transfect RAW 264.7 cells. Cells were lysed with NP-40 lysis buffer 2 h post transfection, 20 μg of total protein was loaded on SDS-polyacrylamide gel. Proteins were transferred to PVDF membrane after gel electrophoresis, and immunoblotted against pIRF3 and β-actin. […] The y-axis indicates relative intensity of pIRF3 compare to β-actin.
To analyze the immunostimulatory effects of all synthetic CDNs in greater detail, RAW 264.7 cells were treated with various concentrations of c-di-GMP, c-di-tzGMP, c-di-thGMP, c-GthGMP and c-GtzGMP and the phosphorylation of IRF3 to pIRF3 was evaluated. CDNs were thus transfected into RAW 264.7 murine cells with digitonin as described in previous studies.[7b,16] Cells were then lysed with NP-40 buffer 2 h after transfection, and total protein was collected for immunoblotting against phosphorylated IRF3 (pIRF3) and β-actin. […] Two other biological replicates produced similar trends (See FIG. S2 in Yi et al, ChemBioChem, Volume 21 (2020)).
Immunoblotting. RAW 264.7 cells were plated on 24-well plates (5×10^5 cells per well) and incubate at 37° C. for 48 h. Cells were then transfected with 1-10 μM of CDN in a permeabilization buffer containing 10 μg/mL digitonin, 50 mM HEPES, pH 7, 100 mM KCl, 3 mM MgCl2, 85 mM sucrose, 1 mM ATP, 0.1 mM DTT, 0.2% BSA for 30 mins at 37° C., then incubated with regular growth medium for 2 h. Cells were lysed with NP-40 lysis buffer containing protease inhibitor cocktail (Roche), PhosSTOP (Roche) and PMSF, and total protein was collected and quantified by BCA assay. Protein extracts were resolved by SDS-PAGE with 7.5% gel and transferred to PVDF membrane. Proteins were detected with the following primary antibodies: rabbit anti-pIRF3 monoclonal antibody (Cell Signaling Technology), mouse anti-β actin monoclonal antibody (Sigma-Aldrich).

T1 sequence (Q9HX69 whole entry): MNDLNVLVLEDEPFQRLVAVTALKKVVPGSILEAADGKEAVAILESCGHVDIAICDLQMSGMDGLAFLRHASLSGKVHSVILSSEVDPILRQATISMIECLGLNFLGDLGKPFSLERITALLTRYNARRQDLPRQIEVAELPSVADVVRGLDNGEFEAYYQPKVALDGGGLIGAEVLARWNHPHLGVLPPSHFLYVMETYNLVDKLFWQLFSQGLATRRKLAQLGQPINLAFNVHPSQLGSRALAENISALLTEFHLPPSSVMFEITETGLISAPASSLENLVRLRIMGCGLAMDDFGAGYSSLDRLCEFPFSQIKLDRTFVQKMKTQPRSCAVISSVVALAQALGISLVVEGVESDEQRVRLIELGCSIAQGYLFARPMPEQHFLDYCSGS

SMILES: Nc1nc2c([C@@H]3O[C@@H]4COP(=O)(O)O[C@H]5[C@@H](O)[C@H](n6cnc7c(=O)[nH]c(N)nc76)O[C@@H]5COP(=O)(O)O[C@H]4[C@H]3O)snc2c(=O)[nH]1 [c-G^tzGMP]
- k2 (cleavage reaction) (rocR; 100 nM rocR, 37° C.): 3.07 ± 0.25 s⁻¹
- k2 (rocR; 100 nM rocR, 37° C., Table 3): 0.096 ± 0.091 s⁻¹
- k3 (rocR; 100 nM rocR, 37° C., Table 3): 3.07 ± 0.25 s⁻¹
- k3 (rocR; 100 nM rocR, 37° C., association in second orientation of heterodimeric CDN): 1.8e+06 ± 100000 M⁻¹ s⁻¹
- k4 (rocR; 100 nM rocR, 37° C., cleavage in second orientation): 0.34 ± 0.01 s⁻¹
- k−3 (rocR; 100 nM rocR, 37° C., dissociation in second orientation): 0.135 ± 0.007 s⁻¹
- k1 (rocR; 100 nM rocR, 37° C., enzyme/substrate association): 1.85e+06 ± 70000 M⁻¹ s⁻¹
- order of gradually reduced rocR hydrolysis rate (rocR; FIG. 10F): c-di-GMP, c-di-^tzGMP, c-G^tzGMP, c-G^thGMP and lastly c-di-^thGMP
- final percentage of product P1 (rocR; Scheme 2b): 58%
- final percentage of product P2 (rocR; Scheme 2b): 42%
- products of rocR-mediated cleavage (rocR; mixed CDNs, HPLC): two products in nearly the same amount
- IFN-β mRNA production / IFN response (STING pathway [1]; RAW 264.7, 1, 5, 10 μM CDN, 2, 4, 6 h): earlier and stronger maximum IFN-β response compared to the native c-di-GMP
- time post transfection of highest IFN-β mRNA production (STING pathway [1]; RAW 264.7, 1, 5 and 10 μM CDN, 2, 4 and 6 h tested): 2 h
- order of IFN-β induction (STING pathway [1]; RAW 264.7, RT-qPCR, FIG. 3): c-GthGMP>c-di-tzGMP>c-GtzGMP>c-di-GMP>c-di-thGMP
- IRF3 phosphorylation (pIRF3), concentration dependence (STING pathway [2]): Increasing amounts of phosphorylated IRF3
